Experimental data as given in patent US5369096A, “Glycolipid derivatives” (The Nisshin Oil Mills, Ltd., priority 1992, dated 1994).

What was measured:
Type in all cases: cell-based
[1] = tested on: Colo 201 cancer cells adhering to vascular endothelial cells of the normal human umbilical cord; test: inhibition of adhesion of Colo 201 cancer cells to rhIL1β-stimulated vascular endothelial cells, liposome dispersion; conditions: 11.8 μM equivalent; for Amount of Colo 201 cells adhered (fluorescence intensity): rhIL1β 200 U/ml, 485 nm
Procedure: (§1) A solution of 200 μg of phosphatidylcholine, 100 μg of cholesterol, 7.5 μg of dicetyl phosphate and 50 μg of a compound of the invention in a mixture of chloroform/methanol=2/1 (ca. 1 ml) was evaporated under reduced pressure to dryness followed by addition of 0.25 ml of a phosphate-buffered saline solution. The mixture was ultrasonicated (an output of 90 watts) for 5 min. and stirred (a vortex mixer) for 5 min. to form a liposome dispersion.
(§2) % Inhibition of adhesion=100-[(fluorescence intensity for rhIL1β-treated group+compound-free or a compound-containing liposome dispersion-treated group)-(fluorescence intensity for rhIL1β-untreated group)/(fluorescence intensity for rhIL1β-treated group-fluorescence intensity for rhIL1β-untreatedgroup)]×100
Vascular endothelial cells of the normal human umbilical cord grown to confluence were stimulated in 24-well plates with 200 U/ml of rhIL1β at 37° C. for 4 hours. After removal of the supernatant by suction liposome dispersions each prepared from 2→3 sialyl Le^x or a compound of the invention in an amount of 11.8 μM equivalent were added except for the rhIL1β-untreated and treated groups. The mixtures were then allowed to react at room temperature for 30 min. Subsequently, colon carcinoma cell line Colo 201 with 2',7'-bis-(carboxyethyl)-5,6-carboxyfluorescene acetoxymethyl ester fluorescent dye enclosed was added at a level of 1×10^6 cells per well followed by centrifugal operation at 100 rpm for 20 min. Each well was washed three times followed by addition of 0.5 ml of 0.5% Triton X-100 and stirring. The contents were divided into 100 μl portions in 96-well plates and measurement was made on a Baxter fluorometer at 485 nm.
4: rhIL1β-treated group+2→3 sialyl Le^x -containing liposome dispersion-treated group
5: rhIL1β-treated group+compound 5E-containing liposome dispersion-treated group (OEG)*
6: rhIL1β-treated group+compound 5A-containing liposome dispersion-treated group (2EG)
7: rhIL1β-treated group+compound 5B-containing liposome dispersion-treated group (3EG)
8: rhIL1β-treated group+compound 5C-containing liposome dispersion-treated group (4EG)
9: rhIL1β-treated group+compound 5D-containing liposome dispersion-treated group (5EG)
* OEG represents a control compound containing no CH2 CH2 O unit. The same shall apply hereinafter.
Amount adhered and % inhibition of adhesion of Colo 201 cancer cells as measured from fluorescence intensity are shown in Table 2 below.

[2] = tested on: HL-60 cancer cells adhering to vascular endothelial cells of the normal human umbilical cord; test: inhibition of adhesion of HL-60 cancer cells to rhIL1β-stimulated vascular endothelial cells, oily emulsion; conditions: 20 μg/ml equivalent; for Amount of HL-60 cancer cells adhered (fluorescence intensity): rhIL1β 200 U/ml, 485 nm/535 nm
Procedure: A mixed solution of 6 mg of egg yolk lecithin (manufactured by Nacalaitesque Inc.), 30 μl of soybean oil J. P. (manufactured by Yoshida Seiyaku), 470 μl of distilled water for injection (manufacturedby Otsuka Seiyaku) and 125 μg of a compound of the invention was ultrasonicated (an output of 90 watts) for 10 min. to prepare an oily emulsion. The oily emulsion was further passed through a polycarbonate membrane filter having 0.2 μm average pore diameter (manufactured by Millipore) to provide an average particle size of 0.2 μm.
(§3) Vascular endothelial cells of the normal human umbilical cord grown to confluence were stimulated in 24-well plates with 200 U/ml of rhIL1β at 37° C. for 4 hours. After removal of the supernatant by suction, oily emulsions each prepared from a compound of the invention in an amount of 20 μg/ml equivalent were added except for the rhIL1β-untreated group (sample 1) and the treated groups (samples 2 and 3). The mixtures were then allowed to react at room temperature for 30 min. Subsequently, promyelocytic leukemia cell line HL-60 with 2',7'-bis(carboxyethyl)-5,6-carboxyfluorescene acetoxymethyl ester fluorescent dye enclosed was added at a level of 1×10^6 cells per well followed by centrifugal operation at 100 rpm for 20 min. Each well was washed three times followed by addition of 0.5 ml of 0.5% Triton X-100 and stirring. The contents were divided into 100 μl portions in 96-well plates and measurement was made on a Baxter fluorometer at 485 nm/535 nm.
4: rhIL1β-treated group+2→3 sialyl Lewis X (natural type)-containing oily emulsion dispersion-treated group
5: rhlL1β-treated group+compound 5E-containing oily emulsion dispersion-treated group (OEG)
6: rhIL1β-treated group+compound 5A-containing oily emulsion dispersion-treated group (2EG)
7: rhIL1β-treated group+compound 5B-containing oily emulsion dispersion-treated group (3EG)
8: rhIL1β-treated group+compound 5C-containing oily emulsion dispersion-treated group (4EG)
9: rhIL1β-treated group+compound 5D-containing oily emulsion dispersion-treated group (5EG)
as §2, with “inhibition” for “Inhibition”, “oily emulsion” for “liposome”

[3] = tested on: human normal lymphocytes adhering to vascular endothelial cells of the normal human umbilical cord; test: inhibition of adhesion of human normal lymphocytes to rhIL1β-stimulated vascular endothelial cells, liposome dispersion; conditions: 20 μg/ml equivalent; for Amount of human normal lymphocytes adhered (fluorescence intensity): rhIL1β 200 U/ml, 485 nm/535 nm
Procedure: as §1
as §3, with “suction, liposome dispersions” for “suction, oily emulsions”, “Subsequently, human normal lymphocytes” for “Subsequently, promyelocytic leukemia cell line HL-60”, “with 2',7'-bis-(carboxyethyl)-5,6-carboxyfluorescene” for “with 2',7'-bis(carboxyethyl)-5,6-carboxyfluorescene”, “of 2×10^6” for “of 1×10^6”, “Each hole” for “Each well”
4: rhIL1β-treated group+compound 5A-containing liposome dispersion-treated group (2EG)
5: rhIL1β-treated group+compound 5B-containing liposome dispersion-treated group (3EG)
6: rhIL1β-treated group+compound 5C-containing liposome dispersion-treated group (4EG)
7: rhIL1β-treated group+compound 5D-containing liposome dispersion-treated group (5EG)
Amount adhered and % inhibition of adhesion of human normal lymphocytes as measured from fluorescence intensity are shown in Table 4 below.

SMILES | Amount of Colo 201 cells adhered (fluorescence intensity) [1] | % Inhibition of adhesion ([1]; Colo 201 cells) [%] | Amount of HL-60 cancer cells adhered (fluorescence intensity) [2] | % Inhibition of adhesion ([2]; HL-60 cells) [%] | Amount of human normal lymphocytes adhered (fluorescence intensity) [3] | % Inhibition of adhesion ([3]; human normal lymphocytes) [%]
CCCCCCCCCCCCCCC(CCCCCCCCCCCCCC)C(=O)Nc1ccc(COCCOCCO[C@@H]2O[C@H](CO)[C@@H](O[C@@H]3O[C@H](CO)[C@H](O)[C@H](O[C@]4(C(=O)O)C[C@H](O)[C@@H](NC(C)=O)[C@H]([C@H](O)[C@H](O)CO)O4)[C@H]3O)[C@H](O[C@@H]3O[C@@H](C)[C@@H](O)[C@@H](O)[C@@H]3O)[C@H]2O)cc1 [Compound 5A, O-(5-acetamido-3,5-dideoxy-D-glycero-α-D-galacto-2-nonulopyranosylonic acid)-(2→3)-O-β-D-galactopyranosyl-(1→4)-[O-α-L-fucopyranosyl-(1→3)-O-β-D-glucopyranosyl]-(1→1)-5-O-para-(2-tetradecylhexadecanoyl)aminobenzyl-3-oxapentane-1,5-diol] | 246293 | 66.69 | 13287 | 65.3 | 6882 | 61.9
CCCCCCCCCCCCCCC(CCCCCCCCCCCCCC)C(=O)Nc1ccc(COCCOCCOCCO[C@@H]2O[C@H](CO)[C@@H](O[C@@H]3O[C@H](CO)[C@H](O)[C@H](O[C@]4(C(=O)O)C[C@H](O)[C@@H](NC(C)=O)[C@H]([C@H](O)[C@H](O)CO)O4)[C@H]3O)[C@H](O[C@@H]3O[C@@H](C)[C@@H](O)[C@@H](O)[C@@H]3O)[C@H]2O)cc1 [Compound 5B, O-(5-acetamido-3,5-dideoxy-D-glycero-α-D-galacto-2-nonulopyranosylonic acid)-(2→3)-O-β-D-galactopyranosyl-(1→4)-[O-α-L-fucopyranosyl-(1→3)-O-β-D-glucopyranosyl]-(1→1)-8-O-para-(2-tetradecylhexadecanoyl)aminobenzyl-3,6-dioxaoctane-1,8-diol] | 212789 |  | 6439 |  | 6993 | 
CCCCCCCCCCCCCCC(CCCCCCCCCCCCCC)C(=O)Nc1ccc(COCCOCCOCCOCCO[C@@H]2O[C@H](CO)[C@@H](O[C@@H]3O[C@H](CO)[C@H](O)[C@H](O[C@]4(C(=O)O)C[C@H](O)[C@@H](NC(C)=O)[C@H]([C@H](O)[C@H](O)CO)O4)[C@H]3O)[C@H](O[C@@H]3O[C@@H](C)[C@@H](O)[C@@H](O)[C@@H]3O)[C@H]2O)cc1 [Compound 5C, O-(5-acetamido-3,5-dideoxy-D-glycero-α-D-galacto-2-nonulopyranosylonic acid)-(2→3)-O-β-D-galactopyranosyl-(1→4)-[O-α-L-fucopyranosyl-(1→3)-O-β-D-glucopyranosyl]-(1→1)-11-O-para-(2-tetradecylhexadecanoyl)aminobenzyl-3,6,9-trioxaundecane-1,11-diol] | 240330 |  | 6762 |  | 10513 | 
CCCCCCCCCCCCCCC(CCCCCCCCCCCCCC)C(=O)Nc1ccc(COCCOCCOCCOCCOCCO[C@@H]2O[C@H](CO)[C@@H](O[C@@H]3O[C@H](CO)[C@H](O)[C@H](O[C@]4(C(=O)O)C[C@H](O)[C@@H](NC(C)=O)[C@H]([C@H](O)[C@H](O)CO)O4)[C@H]3O)[C@H](O[C@@H]3O[C@@H](C)[C@@H](O)[C@@H](O)[C@@H]3O)[C@H]2O)cc1 [Compound 5D, O-(5-acetamido-3,5-dideoxy-D-glycero-α-D-galacto-2-nonulopyranosylonic acid)-(2→3)-O-β-D-galactopyranosyl-(1→4)-[O-α-L-fucopyranosyl-(1→3)-O-β-D-glucopyranosyl]-(1→1)-5-O-para-(2-tetradecylhexadecanoyl)aminobenzyl-3,6,9,12-tetraoxatetradecane-1,14-diol] | 240554 |  | 2782 |  | 8817 | 
